Experimental data from patent US9012410B2, “Method of treating intrauterine inflammation” (Case Western Reserve University, priority 2006, dated 2015).

Key:
mice = settings: literature (Elovitz et al., 2006); cited from earlier work
human TLR2 = molecular target: T1, human TLR2 (Homo sapiens, UniProt O60603+Q15399); assay: IL-8 expression from HEK293/hTLR2 cells by ELISA; type: cell-based; settings: 24-h incubation, varying concentrations
T1 construct: host or cells: HEK293
Description: (§1) HEK293 or HEK293/hTLR2 and HEK293/hTLR4/MD2/CD14, were seeded into 96-well plates at a density of 50,000 cells/well and allowed to grow overnight. The cells were then incubated with and N-palmitoyl(S)-[2,3-bis(palmitoyloxy)-(2, RS)-propyl]-Cys-Scr-Lys4 (Pam3CSK4), ultrapure Escherichia coli LPS, or fresh cultures of F. nucleatum 12230 at the indicated doses followed by a 24-h incubation. The supernatant was harvested and centrifuged and the amount of IL-8 secreted was determined by ELISA.
(§2) Immunlon flat-bottom 96-well microliter plates (Thermo Electron, Mass) were coated with goat anti-human IL-8 Ab (4 μg/ml; R&D System) in 100 μl of coating buffer (0.05 M carbonate buffer (pH 9.6)). After overnight incubation at 4° C., the plates were washed six times with washing buffer, i.e., 0.05% Tween 20 in PBS (Sigma-Aldrich), followed by an overnight incubation in blocking buffer (1% BSA in PBS) at 4° C. The plates were washed four times before an aliquot of 100 μl of diluted mammalian cell culture supernatant or human IL-8 (R&D Systems, Minn) were added to each well and incubated overnight at 4° C. The plates were washed, followed by 3-h incubation with polyclonal rabbit anti-human 11,-8 Ab (1/1000; Endogen) at room temperature. […] The light absorbance was measured at 450 nm on a Bio-Rad Model 680 microplate reader. […]

human TLR4/MD2/CD14 = molecular target: T2, human TLR4/MD2/CD14 (Homo sapiens, UniProt O00206+Q9Y6Y9); assay: IL-8 expression from HEK293/hTLR4/MD2/CD14 cells by ELISA; type: cell-based; settings: 24-h incubation, varying concentrations
T2 construct: host or cells: HEK293
T2 sequence (O00206 24-839): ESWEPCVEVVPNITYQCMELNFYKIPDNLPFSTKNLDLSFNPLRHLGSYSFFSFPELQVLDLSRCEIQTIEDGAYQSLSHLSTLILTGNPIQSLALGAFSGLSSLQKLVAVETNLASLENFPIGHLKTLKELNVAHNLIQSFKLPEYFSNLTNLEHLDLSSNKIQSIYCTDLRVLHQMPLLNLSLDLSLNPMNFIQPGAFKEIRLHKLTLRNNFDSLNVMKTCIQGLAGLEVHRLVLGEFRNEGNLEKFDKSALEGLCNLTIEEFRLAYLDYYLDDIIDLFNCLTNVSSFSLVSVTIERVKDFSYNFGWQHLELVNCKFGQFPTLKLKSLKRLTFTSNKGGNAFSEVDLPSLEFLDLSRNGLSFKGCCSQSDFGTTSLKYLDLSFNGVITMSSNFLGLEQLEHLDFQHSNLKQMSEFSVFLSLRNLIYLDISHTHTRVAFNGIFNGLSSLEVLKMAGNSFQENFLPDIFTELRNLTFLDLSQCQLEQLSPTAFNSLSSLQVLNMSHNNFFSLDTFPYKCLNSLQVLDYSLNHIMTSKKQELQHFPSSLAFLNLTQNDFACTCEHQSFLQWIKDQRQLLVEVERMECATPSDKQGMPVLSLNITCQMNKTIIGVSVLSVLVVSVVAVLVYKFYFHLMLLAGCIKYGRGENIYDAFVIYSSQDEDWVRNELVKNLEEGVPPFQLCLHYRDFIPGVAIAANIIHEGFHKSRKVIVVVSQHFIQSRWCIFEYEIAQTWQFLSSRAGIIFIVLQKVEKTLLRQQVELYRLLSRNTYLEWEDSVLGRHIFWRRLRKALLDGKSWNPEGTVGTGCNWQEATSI
T2 sequence (Q9Y6Y9 19-160): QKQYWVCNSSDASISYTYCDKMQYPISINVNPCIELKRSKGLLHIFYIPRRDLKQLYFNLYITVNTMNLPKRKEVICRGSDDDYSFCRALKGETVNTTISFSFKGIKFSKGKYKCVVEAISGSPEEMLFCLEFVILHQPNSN
Description: as §1, §2

T1 sequence (O60603 21-784): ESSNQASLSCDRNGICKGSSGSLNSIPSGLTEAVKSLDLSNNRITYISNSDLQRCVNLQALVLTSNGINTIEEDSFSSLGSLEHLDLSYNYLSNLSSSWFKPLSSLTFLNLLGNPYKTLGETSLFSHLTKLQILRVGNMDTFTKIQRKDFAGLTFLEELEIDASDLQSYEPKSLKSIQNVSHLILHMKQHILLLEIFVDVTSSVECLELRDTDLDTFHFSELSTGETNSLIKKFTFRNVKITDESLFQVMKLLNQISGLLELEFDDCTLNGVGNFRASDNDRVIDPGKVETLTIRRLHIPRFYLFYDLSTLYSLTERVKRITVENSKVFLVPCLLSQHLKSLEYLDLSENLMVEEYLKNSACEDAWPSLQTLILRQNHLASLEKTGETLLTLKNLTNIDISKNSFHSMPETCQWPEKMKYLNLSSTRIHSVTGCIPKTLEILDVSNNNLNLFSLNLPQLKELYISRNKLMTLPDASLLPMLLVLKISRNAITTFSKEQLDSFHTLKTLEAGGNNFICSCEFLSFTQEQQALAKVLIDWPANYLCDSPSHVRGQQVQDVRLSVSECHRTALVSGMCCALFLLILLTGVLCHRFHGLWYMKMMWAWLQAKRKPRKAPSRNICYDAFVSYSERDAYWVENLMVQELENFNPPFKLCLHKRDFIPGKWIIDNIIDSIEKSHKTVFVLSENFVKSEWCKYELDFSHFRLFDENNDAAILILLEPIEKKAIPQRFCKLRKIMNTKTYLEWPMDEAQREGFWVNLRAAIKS
T1 sequence (Q15399 25-786): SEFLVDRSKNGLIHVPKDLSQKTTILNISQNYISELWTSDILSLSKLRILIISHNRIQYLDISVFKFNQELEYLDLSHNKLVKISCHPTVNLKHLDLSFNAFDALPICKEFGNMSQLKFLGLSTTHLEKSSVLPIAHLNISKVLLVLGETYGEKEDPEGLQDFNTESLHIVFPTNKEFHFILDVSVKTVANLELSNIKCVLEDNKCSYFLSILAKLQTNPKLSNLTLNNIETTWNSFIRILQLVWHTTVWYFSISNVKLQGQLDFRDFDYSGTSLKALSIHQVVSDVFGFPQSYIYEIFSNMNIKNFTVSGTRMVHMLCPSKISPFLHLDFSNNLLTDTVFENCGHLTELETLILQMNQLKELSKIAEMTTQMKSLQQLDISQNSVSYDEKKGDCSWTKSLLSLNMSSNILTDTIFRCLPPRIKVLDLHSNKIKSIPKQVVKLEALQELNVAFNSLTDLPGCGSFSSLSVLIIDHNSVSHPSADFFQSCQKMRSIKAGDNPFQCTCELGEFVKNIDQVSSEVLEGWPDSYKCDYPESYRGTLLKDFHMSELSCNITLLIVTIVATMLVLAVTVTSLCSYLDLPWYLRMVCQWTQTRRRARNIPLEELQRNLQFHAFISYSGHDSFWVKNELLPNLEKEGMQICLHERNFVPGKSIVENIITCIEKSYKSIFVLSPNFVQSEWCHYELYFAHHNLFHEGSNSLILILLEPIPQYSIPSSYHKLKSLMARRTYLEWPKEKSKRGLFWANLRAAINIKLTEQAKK

Compound | maternal morbidity in mice (mice) | activation of TLR2 (IL-8 expression) (human TLR2) | activation of TLR4 (IL-8 expression) (human TLR4/MD2/CD14)
CCCCCC(=O)O[C@]1(C(C)=O)CC[C@H]2[C@@H]3CCC4=CC(=O)CC[C@]4(C)[C@H]3CC[C@@]21C [17-α hydroxyprogesterone caproate] | significant maternal morbidity |  | 
N-palmitoyl(S)-[2,3-bis(palmitoyloxy)-(2, RS)-propyl]-Cys-Scr-Lys4 [Pam3CSK4] |  | only activated their respective receptors | not vice versa
